The values below come from patent US20040009904A1, “APL immunoreactive peptides, conjugates thereof and methods of treatment for aPL antibody-mediated pathologies” (priority 1995, published 2004).

Bridge positions count the residues as written; N and C are the ends. Square brackets hold non-standard residues; d marks the D form. Peptide text beside a SMILES is read from it. NMeL = CN[C@@H](CC(C)C)C(=O)O; Phg = N[C@H](C(=O)O)c1ccccc1; NMeV = CN[C@H](C(=O)O)C(C)C; Aib = CC(C)(N)C(=O)O; Sar = CNCC(=O)O

In this experiment the target is ACA-6501. Put plainly: Competitive binding peptide ACA ELISA, cardiolipin/β2-GPI-coated plates. Details: species or system human. Conditions: Optimization of Peptide 3G3; inf = no 50% inhibition. The protocol: A variation of this assay uses microtitration plates coated with human β2-glycoprotein I/cardiolipin (β2-GPI/CL) instead of tetravalent peptide and tests the ability of monomeric peptides to block the binding of aPL antibody to the epitope(s) on β2-GPI/CL. In this assay, IgG-depleted human serum at an optimized concentration is used as a source of β2-GPI. The monomeric peptides at several concentrations are incubated with an optimized concentration of aPL antibody in a manner analogous to the assay which employs tetravalent peptide as a plate substrate. Following the incubation of aPL/peptide in (β2-GPI/CL) plates, antibody binding and the peptide concentration required for 50% inhibition is determined at half-maximal absorbance as in the tetravalent assay.
Peptide sequences for all five peptides immediately follow the table. All were tested using the competitive binding peptide ACA ELISA using CL/β2-GPI plates as described herein.
(B) Immulon I® 96-well, flat-bottom, polystyrene microtitration plates (Dynatech Laboratories, Inc., Chantilly, Va.) were coated with 30 μL/well of cardiolipin (CL, 50 μg; Sigma Chemical Co., St. Louis, Mo.) in ethanol. Two control wells received 30 μL ethanol only. After overnight evaporation at 4° C., each well was blocked with 200 μL of 5% (w/v) fish gelatin in PBS for 2 hours at RT.
During this incubation, variable amounts of each of six peptides were mixed with 22 μL ACA-6501 serum diluted with 3% fish gelatin in 1:1 TBS/PBS (final dilution of 1:400) in a final volume of 220 μL using Eppendorf microcentrifuge tubes. Specifically, in tube #1 were mixed 181.3 μL of 3% fish gelatin in TBS-PBS, 16.7 μL of peptide stock solution plus 22 μL of ACA-6501 serum diluted 40 times in 3% fish gelatin/TBS-PBS. Stock solutions ranged from 450-800 μg/mL for peptides #951 (diserine non-cyclized negative control), #952 (a lot of LJP 690), and thioethers CCTE-3G3, CHTE-3G3, HCTE-3G3 and HHTE-3G3. To tube #2 the following were added: 148 μL fish gelatin/TBS-PBS, […] of peptide stock solution, plus 22 μL of 40 times diluted ACA-6501 serum. Tube #3 contained 48 μL fish gelatin/TBS-PBS, […] of peptide stock solution, plus 22 μL of 40 times diluted ACA-6501 serum. The control tube #4 received 396 μL fish gelatin/TBS-PBS and 44 μL of 40 times diluted ACA-6501 serum (no peptide). Each of the tubes incubated for approximately 1 hour at RT.
The CL/β2-GPI microtitration plate was washed 5 times with TBS and 100 μL aliquots in duplicate from Eppendorf tubes #1, 2, 3, and 4 containing the antibody-peptide (or no peptide mixtures) were added to the wells. A volume of 100 μL from tube #4 was added to the duplicate control wells containing no cardiolipin. The microtitration plate was incubated for 1 hour at RT with agitation at 40 rpm in an orbital shaker (American Scientific, Rotator V), washed 5 times with TBS and then 100 μL of 1:1000 goat anti-human IgG alkaline phosphatase conjugate (Zymed, Cat No. 62-8422) in 0.5% (w/v) BSA-TBS was added. Following incubation for 1 hour at RT, the microtitration plate was again washed 5 times with TBS and the colorimetric enzyme detection developed by adding 100 μL of PMPP solution (7.8 g phenolphthalein monophosphate plus 69.5 g of 2-amino-2-methyl-1-propanol in 100 mL water stock solution diluted 1:26 with water). After 21 minutes, the reaction was stopped by adding 50 μL of 0.2 M Na2HPO4 (Mallinckrodt) to each well. Absorbance at 550 nm was read in a microplate reader (Bio-Tek Instruments, Model EL 311). The amount of peptide that inhibited ACA-6501 binding by 50%, the IC50, was calculated from the graph at the intersection of half-maximal absorbance with amount of peptide added.
In general terms: An ELISA detects its analyte on a solid surface through an enzyme-linked reagent.
For `CC(C)C[C@@H]1NC(=O)[C@H](CCCCN)NC(=O)CN(C)C(=O)[C@H](CC(C)C)NC(=O)[C@H](C(C)C)NC(=O)CNC(=O)[C@H](CC(C)C)NC(=O)[C@@H](N)CSSC[C@@H](C(=O)O)NC1=O` [C L G V L nG K L C] (H-CLGVL[Sar]KLC-OH; disulfide 1-9), the “with ACA 6501 150 ug/mL” value was 550 µg/mL.

With `CC(C)C[C@@H]1NC(=O)[C@H](CCCCN)NC(=O)CNC(=O)[C@@H](CC(C)C)NC(=O)[C@H](C(C)C)NC(=O)CNC(=O)[C@H](CC(C)C)NC(=O)[C@@H](N)CSSC[C@@H](C(=O)O)NC1=O` [C L G V dL G K L C] (H-CLGV[dL]GKLC-OH; disulfide 1-9), the “with ACA 6501 150 ug/mL” value turned out to be 230 µg/mL.

In the case of `CC(C)C[C@@H]1NC(=O)[C@H](CCCCN)NC(=O)CNC(=O)[C@H](CC(C)C)NC(=O)[C@H](C(C)C)NC(=O)CNC(=O)[C@H](C(C)C)NC(=O)[C@@H](N)CSSC[C@@H](C(=O)O)NC1=O` [C V G V L G K L C] (H-CVGVLGKLC-OH; disulfide 1-9), the “with ACA 6501 150 ug/mL” value was 130 µg/mL.

For `CC(C)C[C@@H]1NC(=O)[C@H](CCCCN)NC(=O)CNC(=O)[C@H](CC(C)C)NC(=O)[C@H](C(C)C)NC(=O)CNC(=O)[C@H](C)NC(=O)[C@@H](N)CSSC[C@@H](C(=O)O)NC1=O` [C A G V L G K L C] (H-CAGVLGKLC-OH; disulfide 1-9), the “with ACA 6501 150 ug/mL” value is 200 µg/mL.

As for `CC(C)C[C@@H]1NC(=O)[C@H](C(C)C)NC(=O)CNC(=O)[C@H](CC(C)C)NC(=O)[C@@H](N)CSSC[C@@H](C(=O)O)NC(=O)[C@@H](CC(C)C)NC(=O)[C@@H](CCCCN)NC(=O)CNC1=O` [C L G V L G dK dL C] (H-CLGVLG[dK][dL]C-OH; disulfide 1-9), the “with ACA 6501 150 ug/mL” value amounted to 150 µg/mL.

As for `CC(C)C[C@@H]1NC(=O)[C@H](CCCCN)NC(=O)CNC(=O)[C@H](CC(C)C)N(C)C(=O)[C@H](C(C)C)NC(=O)CNC(=O)[C@H](CC(C)C)NC(=O)[C@@H](N)CSSC[C@@H](C(=O)O)NC1=O` [C L G V nL G K L C] (H-CLGV[NMeL]GKLC-OH; disulfide 1-9), the “with ACA 6501 150 ug/mL” value is 180 µg/mL.

In the case of `CC(C)C[C@@H]1NC(=O)[C@@H](NC(=O)[C@H]2CCCN2)CSSC[C@@H](C(=O)O)NC(=O)[C@H](CC(C)C)NC(=O)[C@H](CCCCN)NC(=O)CNC(=O)[C@H](CC(C)C)NC(=O)[C@H](C(C)C)NC(=O)CNC1=O` [dP C L G V L G K L C] (H-[dP]CLGVLGKLC-OH; disulfide 2-10), the “with ACA 6501 150 ug/mL” value was 120 µg/mL.

On to `CC(C)C[C@@H]1NC(=O)[C@H](C(C)C)NC(=O)CNC(=O)[C@H](CC(C)C)NC(=O)[C@@H](N)CSSC[C@@H](C(=O)O)NC(=O)CNC(=O)[C@H](CCCCN)NC(=O)CNC1=O` [C L G V L G K G C] (H-CLGVLGKGC-OH; disulfide 1-9), for which the “with ACA 6501 150 ug/mL” value was determined as 500 µg/mL.

As to `CC(C)C[C@@H]1NC(=O)[C@H](CCCCN)NC(=O)CNC(=O)[C@H](CC(C)C)NC(=O)[C@H](C(C)C)N(C)C(=O)CNC(=O)[C@H](CC(C)C)NC(=O)[C@@H](N)CSSC[C@@H](C(=O)O)NC1=O` [C L G nV L G K L C] (H-CLG[NMeV]LGKLC-OH; disulfide 1-9), the “with ACA 6501 150 ug/mL” value amounted to 220 µg/mL.

As for `CC(C)C[C@@H]1NC(=O)[C@H](CCCCN)NC(=O)CNC(=O)[C@H](CC(C)C)NC(=O)C(C)(C)NC(=O)CNC(=O)[C@H](CC(C)C)NC(=O)[C@@H](N)CSSC[C@@H](C(=O)O)NC1=O` [C L G aiB L G K L C] (H-CLG[Aib]LGKLC-OH; disulfide 1-9), the “with ACA 6501 150 ug/mL” value stood at 110 µg/mL.

Take `CC(C)C[C@@H]1NC(=O)[C@H](CCCCN)NC(=O)CNC(=O)[C@H](CC(C)C)NC(=O)[C@@H](C(C)C)NC(=O)CNC(=O)[C@H](CC(C)C)NC(=O)[C@@H](N)CSSC[C@@H](C(=O)O)NC1=O` [C L G dV L G K L C] (H-CLG[dV]LGKLC-OH; disulfide 1-9): the “with ACA 6501 150 ug/mL” value was found to be 260 µg/mL.

In the case of `CC(C)C[C@@H]1NC(=O)[C@H](C(C)C)NC(=O)CNC(=O)[C@H](CC(C)C)NC(=O)[C@@H](N)CSSC[C@@H](C(=O)O)NC(=O)[C@@H](CC(C)C)NC(=O)[C@H](CCCCN)NC(=O)CNC1=O` [C L G V L G K dL C] (H-CLGVLGK[dL]C-OH; disulfide 1-9), the “with ACA 6501 150 ug/mL” value turned out to be 140 µg/mL.

`CC(C)C[C@@H]1NC(=O)[C@H](CCCCN)NC(=O)[C@H](c2ccccc2)NC(=O)[C@H](CC(C)C)NC(=O)[C@H](C(C)C)NC(=O)CNC(=O)[C@H](CC(C)C)NC(=O)[C@@H](N)CSSC[C@@H](C(=O)O)NC1=O` [C L G V Lp G K L C] (H-CLGVL[Phg]KLC-OH; disulfide 1-9): the “with ACA 6501 150 ug/mL” value stood at 30 µg/mL.

Turning to `CC(C)C[C@@H]1NC(=O)[C@H](CCCCN)NC(=O)CNC(=O)[C@H](CC(C)C)NC(=O)[C@H](C(C)C)NC(=O)CNC(=O)[C@@H]2CCCN2C(=O)[C@@H](N)CSSC[C@@H](C(=O)O)NC1=O` [C P G V L G K L C] (H-CPGVLGKLC-OH; disulfide 1-9), the “with ACA 6501 150 ug/mL” value stood at 160 µg/mL.

Turning to `CC(C)C[C@@H]1NC(=O)[C@H](C(C)C)NC(=O)CNC(=O)[C@H](CC(C)C)NC(=O)[C@@H](N)CSSC[C@@H](C(=O)O)NC(=O)C(C)(C)NC(=O)[C@H](CCCCN)NC(=O)CNC1=O` [C L G V L G K aiB C] (H-CLGVLGK[Aib]C-OH; disulfide 1-9), the “with ACA 6501 150 ug/mL” value was above 470 µg/mL.

On to `CC(C)C[C@@H]1NC(=O)[C@H](CCCCN)NC(=O)CNC(=O)[C@H](CC(C)C)NC(=O)[C@H](C(C)C)NC(=O)CN(C)C(=O)[C@H](CC(C)C)NC(=O)[C@@H](N)CSSC[C@@H](C(=O)O)NC1=O` [C L nG V L G K L C] (H-CL[Sar]VLGKLC-OH; disulfide 1-9), for which the “with ACA 6501 150 ug/mL” value was 70 µg/mL.

In the case of `CC(C)C[C@@H]1NC(=O)[C@H](CCCCN)NC(=O)CNC(=O)[C@H](CC(C)C)NC(=O)[C@H](C(C)C)NC(=O)[C@H](c2ccccc2)NC(=O)[C@H](CC(C)C)NC(=O)[C@@H](N)CSSC[C@@H](C(=O)O)NC1=O` [C L pG V L G K L C] (H-CL[Phg]VLGKLC-OH; disulfide 1-9), the “with ACA 6501 150 ug/mL” value was determined as 70 µg/mL.

For `CC(C)C[C@@H]1NC(=O)[C@H](C(C)C)NC(=O)CNC(=O)[C@H](CC(C)C)NC(=O)[C@@H](N)CSSC[C@@H](C(=O)O)NC(=O)[C@@H](CC(C)C)NC(=O)[C@@H](CC(C)C)NC(=O)CNC1=O` [C L G V L G dL dL C] (H-CLGVLG[dL][dL]C-OH; disulfide 1-9), the “with ACA 6501 150 ug/mL” value is 140 µg/mL.

On to `CC(C)C[C@@H]1NC(=O)[C@H](C(C)C)NC(=O)CNC(=O)[C@H](CC(C)C)NC(=O)[C@@H](N)CSSC[C@@H](C(=O)O)NC(=O)[C@@H]2CCCN2C(=O)[C@H](CCCCN)NC(=O)CNC1=O` [C L G V L G K P C] (H-CLGVLGKPC-OH; disulfide 1-9), for which the “with ACA 6501 150 ug/mL” value came to 550 µg/mL.

Take CLGGLGKLC [C L G G L G K L C]: the “with ACA 6501 150 ug/mL” value is “inf”.

For `CC(C)C[C@@H]1NC(=O)[C@H](C(C)C)NC(=O)CNC(=O)[C@H](CC(C)C)NC(=O)[C@@H](N)CSSC[C@@H](C(=O)O)NC(=O)[C@H](C)NC(=O)[C@H](CCCCN)NC(=O)CNC1=O` [C L G V L G K A C] (H-CLGVLGKAC-OH; disulfide 1-9), the “with ACA 6501 150 ug/mL” value worked out at 360 µg/mL.

For `CC(C)C[C@@H]1NC(=O)[C@H](C(C)C)NC(=O)CNC(=O)[C@H](CC(C)C)NC(=O)[C@@H](N)CSSC[C@@H](C(=O)O)NC(=O)[C@H](CC(C)C)NC(=O)[C@@H](CCCCN)NC(=O)CNC1=O` [C L G V L G dK L C] (H-CLGVLG[dK]LC-OH; disulfide 1-9), the “with ACA 6501 150 ug/mL” value worked out at 170 µg/mL.
